In ChEMBL document CHEMBL1152140 (Bioorg Med Chem Lett, 2008) one finds IC50 and ED50 data, which are given here for four compounds.

A short description of assay [1]: Inhibition of potato LOX5 by enzyme immuno assay. Also noted: species or system Solanum tuberosum.
A further assay has as its system Rattus norvegicus. The assay can be described thus: Antiinflammatory activity against carrageenan-induced orally dosed rat assessed paw edema after 3 hrs. It counts as functional. To be noted: po.
Assay [2] deals with T1, Prostaglandin G/H synthase 1 (Ovis aries, UniProt P05979).
T1 sequence (P05979 whole entry): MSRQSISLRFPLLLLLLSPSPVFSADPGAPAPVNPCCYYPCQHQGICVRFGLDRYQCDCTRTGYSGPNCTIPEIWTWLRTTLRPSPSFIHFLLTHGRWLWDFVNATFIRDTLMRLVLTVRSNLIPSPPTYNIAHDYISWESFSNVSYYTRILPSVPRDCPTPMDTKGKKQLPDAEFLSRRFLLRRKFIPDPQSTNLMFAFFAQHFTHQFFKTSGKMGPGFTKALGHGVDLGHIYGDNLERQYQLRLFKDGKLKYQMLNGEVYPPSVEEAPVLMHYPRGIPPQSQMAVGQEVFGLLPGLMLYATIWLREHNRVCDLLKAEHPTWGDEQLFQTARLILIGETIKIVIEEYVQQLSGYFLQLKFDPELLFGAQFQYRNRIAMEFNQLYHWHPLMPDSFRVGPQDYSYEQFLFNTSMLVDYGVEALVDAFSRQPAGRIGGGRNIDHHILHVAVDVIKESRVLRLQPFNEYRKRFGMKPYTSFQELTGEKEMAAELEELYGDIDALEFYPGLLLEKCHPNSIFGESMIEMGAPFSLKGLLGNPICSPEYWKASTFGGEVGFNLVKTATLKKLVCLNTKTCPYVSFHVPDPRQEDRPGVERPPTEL
Description: Inhibition of ovine COX1 by enzyme immuno assay

The compound `O=C(O)/C=C/c1ccc(O)c(O)c1` [CAFFEIC ACID] displayed an IC50 in assay [1] of 3.47 µM. This lies in the single-digit micromolar range.

As to `NS(=O)(=O)c1ccc(-n2nc(C(F)(F)F)cc2-c2ccn(O)c(=O)c2)cc1`, the IC50 in assay [1] was found to be 4.9 µM; in assay [2], 10.2 µM. This compound had an ED50 in the assay with Rattus norvegicus of 99.8 mg/kg.

For `Cc1ccc(-c2cc(C(F)(F)F)nn2-c2ccc(S(N)(=O)=O)cc2)cc1` [CELECOXIB], the IC50 in assay [1] is over 10 µM.

As to `CS(=O)(=O)c1ccc(-n2nc(C(F)(F)F)cc2-c2ccn(O)c(=O)c2)cc1`, the IC50 in assay [1] was 0.35 µM; in assay [2], 13.2 µM. In the assay on Rattus norvegicus, this compound came in with an ED50 of 66.9 mg/kg.
